Source: publication PMC10059057, “Antileishmanial and Antiplasmodial Activities of Secondary Metabolites from the Root of Antrocaryon klaineanum Pierre (Anacardiaceae)” (Molecules, 2023)
In brackets after ≈: the same amount, converted by molar mass. Where two headings read alike, the source gives them in different places.

Assays:
[1] = tested on: P. falciparum chloroquine-sensitive (Pf3D7); test: Antiplasmodial SYBR green I based fluorescence assay, chloroquine-sensitive strain; assay type: cell-based; conditions: Plasmodium falciparum, read-out: Pf3D7 IC50 ± SD
Source text: (§1) The cryopreserved chloroquine-sensitive (Pf3D7-(MRA-102)), the multi-resistant (PfDd2) of Plasmodium falciparum, and the promastigote form of Leishmania donovani strains were obtained from BEI Resources (https://www.beiresources.org/ (accessed on 16 February 2019)) and are routinely cultured at the Antimicrobial and Biocontrol Agents Unit, University of Yaoundé I.
(§2) Plasmodium falciparum strains were maintained in 60 mm sterile petri dishes containing complete RPMI 1640 medium [RPMI 1640 (Sigma Aldrich) supplemented with 0.2% sodium bicarbonate (Sigma Aldrich), 0.5% Albumax II (Gibco), 1% hypoxanthine 100X (Gibco, Billings, MT, USA), 25 mM HEPES, and 0.04% gentamicin (Sigma Aldrich)] with fresh O^+ erythrocytes of healthy human volunteers suspended at 4% haematocrit (v/v) and incubated at 37 °C in a 5% CO2 humidified atmosphere. The medium was replaced daily with fresh complete medium to propagate the culture. Ten percent (10%) Giemsa-stained thin blood smears were examined microscopically under immersion oil to monitor cell-cycle transition and parasitaemia.
(§3) A stock solution was prepared at 100 mg/mL for each extract and fraction and at 50 mg/mL for isolated compound in 100% DMSO (Sigma–Aldrich, Munich, Germany). Master plates were then prepared by mixing 2 μL of each stock solution with 198 μL of fresh incomplete RPMI 1 640 culture medium to yield a concentration of 1 mg/mL for extract and fraction and of 0.5 mg/mL (1% DMSO) followed by a 5-fold serial dilution. Extracts and fractions were tested at concentrations ranging from 0.16 to 100 μg/mL, and isolated compounds at concentrations ranging from 0.08 to 50 μg/mL.
(§4) The use of mixed-stage cultures can enable the test molecules to interact with all the three stages (ring, trophozoite, and schizont) found during a 48-h life cycle of P. falciparum in culture. Moreover, starting the experiment with a synchronized ring stage culture provides the advantage of monitoring the growth inhibitory effect of test samples without a rise-up in parasitemia during the ring–trophozoite–schizont transitions. For this particular reason, parasites were synchronized at the ring stage by serial treatment with 5 % sorbitol for two days prior to each experiment with respect to Lambros and Vanderberg, 1979 [44] protocol.
(§5) Drug sensitivity assay was carried out in 96-well microtitration plates using the SYBR green I based fluorescence assay (Smilkstein et al., 2004). […] The fact that human red blood host cells are anucleate allows the use of SYBR green for the proper monitoring of the growth of the malarial parasite.
(§6) The 96 wells flat-bottom assay plates with sorbitol-synchronized ring stage parasites (haematocrit: 1%, parasitaemia: 2%, 90 μL) were incubated in the presence of 10 µL of pre-diluted extracts, fractions, isolated compounds, and reference drugs [Chloroquine and Artemisinin (Sigma–Aldrich, Munich, Germany)] at different triplicate concentrations (100 µg/mL–0.16 µg/mL for extract/fractions and 50 µg/mL–0.08 µg/mL for compounds). After an incubation period of 72 h at 37 °C, 100 μL of the SYBR Green I solution prepared in a lysis buffer (0.2 µL of 10,000× SYBR Green I per mL of lysis buffer) consisting of Tris (20 mM; pH 7.5), EDTA (5 mM), saponin (0.008%; m/v), and Triton X-100 (0.08%; v/v) was added to each well, mixed twice gently with a multi-channel pipette, and incubated in the dark at 37 °C for 1 h. Fluorescence was measured using the microplate reader Infinite M200 (Tecan) at an excitation and emission wavelength of 485 and 538 nm, respectively. […] The data analysis was performed with GraphPad Prism 8.0 software, fitting by nonlinear regression, and concentration–response curves were generated to determine the median inhibitory concentration (IC50) for each sample.

Pf 3D7 = tested on: Pf 3D7; design: method as in PMID 34187456; conditions: from Hymenostegia afzelii and Endodesmia calophylloides; read-out: IC50 against Pf 3D7; cited from earlier work
PfDd2 = tested on: PfDd2; design: method as in PMID 34187456; conditions: from Hymenostegia afzelii and Endodesmia calophylloides; read-out: IC50 against PfDd2; cited from earlier work
[2] = tested on: L. donovani promastigotes 1S (MHOM/SD/62/1S); test: Antileishmanial resazurin fluorimetric assay on promastigotes; assay type: cell-based, Leishmania donovani; conditions: for IC50: Leishmania donovani
Method: as §1
Leishmania donovani promastiogtes were cultured in Medium 199 (Sigma, Darmstadt, Germany) supplemented with 10% Heat-Inactivated fetal Bovine Serum (HIFBS) (Sigma, Darmstadt, Germany) and 100 IU/mL penicillin/streptomycin. The culture was maintained in 75 cm^2 cell culture flask at 28 °C and sub-cultured every 72 h.
as §3
The antileishmanial activity of crude extracts, derived fractions, and isolated compounds against cultured L. donovani promastigotes was evaluated using the resazurin fluorimetric assay as described by Siqueira-Neto et al. (2010). Briefly, promastigotes from a logarithmic phase culture (4 × 10^5 cells/mL; 90 μL) were seeded in 96-well microplates and treated with 10 μL of inhibitors at different triplicate concentrations (100 µg/mL–0.16 µg/mL for extract/fractions and 50 µg/mL–0.08 µg/mL for compounds). Plates were incubated for 28 h at 28 °C, followed by the addition of […] resazurin (0.15 mg/mL in DPBS; Sigma, Darmstadt, Germany). The negative and positive controls were, respectively, 0.1% DMSO and amphotericin B (Sigma, Darmstadt, Germany) (10–0.016 μg/mL) treated wells. After an additional incubation for 44 h, plates were then read on a Magelan Infinite M200 fluorescence plate reader (Tecan, Männedorf, Switzerland) at excitation and emission wavelengths of 530 and 590 nm, respectively. For each sample, growth inhibition percentages were calculated with Microsoft Excel Software; then, from the nonlinear regression fit, concentration–response curves were generated to deduce the median inhibitory concentration (IC50) using the GraphPad Prism 8.0 software.

[3] = tested on: P. falciparum chloroquine-resistant (PfDd2); test: Antiplasmodial SYBR green I based fluorescence assay, chloroquine-resistant strain; assay type: cell-based; conditions: Plasmodium falciparum, read-out: PfDd2 IC50 ± SD
Source text: as §1, §2, §3, §4, §5, §6
The resistance index (RI) was determined as the ratio of the IC50 of the samples on the multi-resistant strain Dd2 and the IC50 on the chloroquine-sensitive strain 3D7 as reported by Douanla et al..

[4] = In vitro cytotoxicity assay (resazurin) on Raw 264.7 macrophage cells; assay type: cell-based, murine; conditions: mouse
Method: RAW 264.7 cells were obtained from RIKEN BioResource Centre Cell Bank (Tsukuba, Japan) and cultured in Dulbecco’s modified Eagle medium (DMEM) containing 1% penicillin–streptomycin and 10% FBS under 5% CO2 and humidified atmosphere at 37 °C and sub-cultured every 72 h.
as §3
The murine macrophages, Raw 264.7 cells were grown in a T-25 cm^2 flask containing the complete Dulbecco’s modified Eagle’s medium (Sigma–Aldrich, Munich, Germany) supplemented with 10% FBS (Sigma–Aldrich, Munich, Germany), 1% non-essential amino acids, and 1% (v/v) penicillin–streptomycin (Sigma–Aldrich, Munich, Germany) and incubated at 37° in a humidified atmosphere containing 5% CO2. For the experiments, 80–90% confluent cell culture was trypsinized, counted using a Neubauer haemacytometer, and seeded into a 96-well cell culture treated flat-bottomed plate (SARSTEDT, Inc. Newton, NC 28658, USA) at a cell density of 10^4 cells/well. Plates were incubated overnight to allow cell adhesion. Cells were then treated with serially diluted concentrations of crude extract, fractions, and isolated compounds for 48 h. Podophyllotoxin (Sigma–Aldrich, Munich, Germany) was used as positive control with the highest concentration of 10 μM. Afterwards, 10 μL of resazurin solution (0.15 mg/mL prepared in PBS) was added to each well, and the plates were additionally incubated for 4 h. Of important note, resazurin is a nonfluorescent, nontoxic, and cell-permeable blue dye which is used to quantify cell viability following its conversion into the highly fluorescent pink dye resorufin in response to changes in the reducing environment within the cytosol of the cell. The level of fluorescence that positively correlates with cell viability was measured using a Magellan Infinite M200 plate reader (Tecan, Germany) at an excitation wavelength of 530 nm and an emission wavelength of 590 nm. The growth proliferation percentage of cells was calculated with respect to the negative control. The concentration–response curves were plotted using inhibitory percentages versus the logarithm of the drug concentration to determine the concentration of drug that reduces cell viability by 50% (CC50) using GraphPad Prism 8.0 software. Selectivity indices (SI) [SI = CC50/IC50] were determined for each inhibitor based on their antiparasitic activity (IC50) and cell cytotoxicity (CC50 on Raw cells). Samples with SI greater than 10 were classified as poorly toxic toward Raw cells.

[5] = tested on: Leishmania donovani strain MHOM/IN/1983/AG83; design: method as in PMID 24949478; conditions: scopoletin from leaves of Canarium patentinervium; cited from earlier work
cholinesterase = target: cholinesterase; design: method as in PMID 24949478; conditions: cited from earlier work
Leishmania = tested on: Leishmania; design: method as in PMID 30663371; conditions: another study; cited from earlier work
Leishmania donovani [6] = tested on: Leishmania donovani; design: method as in PMID 24802987, PMID 36399160; conditions: cited from earlier work
Leishmania donovani [7] = tested on: Leishmania donovani; design: method as in PMID 24802987, PMID 36399160; conditions: cited from earlier work; remark: listed apart in the source
leishmania promastigotes = tested on: leishmania promastigotes; design: method as in PMID 31085212; conditions: β-sitosterol from Ifloga spicata; cited from earlier work
[8] = chloroquine-sensitive strain 3D7, 72 h
[9] = promastigotes, resazurin assay, read-out: L. donovani Promastigote IC50 ± SD
[10] = chloroquine-resistant strain Dd2, 72 h
[11] = read-out: L. donovani Promastigote IC50 ± SD, promastigotes, resazurin assay
[12] = Raw 264.7 macrophages, 48 h treatment, resazurin, read-out: Cytotoxicity Raw Cells CC50 ± SD

COc1c(O)cc2c(=O)oc3c(OC)c(O)cc4c(=O)oc1c2c34 [3,3′-Dimethylellagic acid (4), 3,3′-dimethylellagic acid]
IC50 [1, 8]: > 50 µg/mL | IC50 (Pf 3D7): 4270 nM | IC50 (PfDd2): 1360 nM | IC50 [2, 9]: 8.07 ± 0.9 µg/mL (≈ 24.4 µM) | IC50 [3, 10]: > 50 µg/mL | CC50 at 48 h [4]: > 500 µg/mL

C[C@@H]1[C@H](O)[C@@H](C)/C=C/C=C/C=C/C=C/C=C/C=C/C=C/[C@H](O[C@@H]2O[C@H](C)[C@@H](O)[C@H](N)[C@@H]2O)C[C@@H]2O[C@](O)(C[C@@H](O)C[C@@H](O)[C@H](O)CC[C@@H](O)C[C@@H](O)CC(=O)O[C@H]1C)C[C@H](O)[C@H]2C(=O)O [Amphotericin B, amphotericin B, reference compound]
IC50 [2, 9]: 2.9 ± 0.46 µg/mL (≈ 3.14 µM)

CCCCCCCC=CCCCCCCCCCCCCCC(O)C(O)C(COC1OC(CO)C(O)C(O)C1O)NC(=O)C(O)CCCCCCCCCCCCCC [Antroklaicerebroside (1), (2S,3S,4R,2′R,18E)N-((-3,4-dihydroxy-β-D-gluco-pyranosyl)oxy)hexacos-18-en-2-yl)-2-hydroxyhexadecanamide]
IC50 [1, 8]: 42.04 ± 0.08 µg/mL | IC50 [2, 9]: 6.19 ± 0.79 µg/mL (≈ 7.33 µM) | melting point: 184 to 186 °C | IC50 [3, 10]: > 50 µg/mL | CC50 at 48 h [4]: > 500 µg/mL

C[C@@H]1CC[C@H]2[C@@H](C)C(=O)O[C@@H]3O[C@@]4(C)CC[C@@H]1[C@]32OO4 [Artemesin, Artemisinin, reference compound]
IC50 ([1]; chloroquine-sensitive strain 3D7, 72 h, reference drugs in µM): 0.02 µM | IC50 ([3]; chloroquine-resistant strain Dd2, 72 h, reference drugs in µM): 23.7 ± 0.24 µM

CCN(CC)CCCC(C)Nc1ccnc2cc(Cl)ccc12 (stereo not shown) [Chloroquine, reference compound]
IC50 ([1]; 3D7, 72 h): 0.85 ± 0.01 µM | IC50 ([3]; DD2, 72 h): 21.7 ± 0.25 µM

O=c1ccc2cc(O)c(O)cc2o1 [Esculetin (2), 6,7-dihydroxycoumarin]
IC50 [1, 8]: 45.57 ± 0.08 µg/mL | IC50 [2, 9]: > 50 µg/mL | IC50 [3, 10]: 9.3 ± 0.29 µg/mL | CC50 at 48 h [4]: > 500 µg/mL

COc1cc([C@@H]2c3cc4c(cc3[C@H](O)[C@H]3COC(=O)[C@H]23)OCO4)cc(OC)c1OC [Podophyllotoxin, reference compound]
CC50 at 48 h ([4]; Raw 264.7 macrophages, positive control, unit µM, read-out: Cytotoxicity Raw Cells CC50 ± SD): 0.71 ± 0.2 µM

COc1cc2ccc(=O)oc2cc1O [Scopoletin (3), 7-hydroxy-6-methoxycoumarin]
IC50 against Leishmania donovani strain MHOM/IN/1983/AG83 [5]: 163.3 µg/mL (≈ 850 µM) | IC50 [1, 8]: > 50 µg/mL | anticholinesterase activity IC50 (cholinesterase): 51 µg/mL | antileishmanial activity IC50 (Leishmania): 6.804 µg/mL | IC50 [2, 9]: 6.4 ± 0.8 µg/mL (≈ 33.3 µM) | IC50 [3, 10]: > 50 µg/mL | CC50 at 48 h [4]: > 500 µg/mL

CC[C@H](/C=C/[C@@H](C)[C@H]1CC[C@H]2[C@@H]3CC=C4C[C@@H](O)CC[C@]4(C)[C@H]3CC[C@]12C)C(C)C [Stigmasterol (6), stigmasterol]
IC50 ([1]; 3D7, 72 h): > 50 µg/mL | IC50 [2, 11]: 8.07 ± 0.9 µg/mL (≈ 19.6 µM) | L. donovani Promastigote IC50 ± SD ([2]; promastigotes, resazurin assay): 9.14 ± 0.96 µg/mL | IC50 ([3]; DD2, 72 h): > 50 µg/mL | CC50 at 48 h [4, 12]: > 500 µg/mL

O=c1oc2c(O)c(O)cc3c(=O)oc4c(O)c(O)cc1c4c23 [ellagic acid]
parasitemia in in vivo antileishmanial mouse model (Leishmania donovani [6]): significatively reduced parasitemia | in vitro effect against Leishmania donovani (Leishmania donovani [7]): exhibited an in vitro effect

CC[C@H](CC[C@@H](C)[C@H]1CC[C@H]2[C@@H]3CC=C4C[C@@H](O)CC[C@]4(C)[C@H]3CC[C@]12C)C(C)C [β-sitosterol (5), β-sitosterol]
IC50 ([1]; 3D7, 72 h): 45.3 ± 1.66 µg/mL | IC50 against leishmania promastigotes (leishmania promastigotes): 9.2 ± 0.06 µg/mL (≈ 22.2 µM) | IC50 [2, 11]: 5.56 ± 0.74 µg/mL (≈ 13.4 µM) | IC50 ([3]; DD2, 72 h): > 50 µg/mL | CC50 at 48 h [4, 12]: > 500 µg/mL
